The target in experiment [1] is T1, human JAK1 (a.a. 837-1142) (Homo sapiens, UniProt P23458).
T1 construct: human JAK1 (a.a. 837-1142); His tag (N); made in house; host or cells: insect cells (baculovirus)
Description: In vitro JAK kinase assay (HTRF, phosphorylation of a biotinylated peptide), JAK1. It is filed as biochemical. Particulars: Table D1; read-out: JAK1 IC50. How it is done:
(§1) The catalytic activity of JAK1, JAK2 or JAK3 was assayed by measuring the phosphorylation of a biotinylated peptide. The phosphorylated peptide was detected by homogenous time resolved fluorescence (HTRF). […] The ATP concentration in the reactions was 90 μM for JAK1, 30 μM for JAK2 and 3 μM for JAK3. Reactions were carried out at room temperature for 1 hr and then stopped with 20 μL 45 mM EDTA, 300 nM SA-APC, 6 nM Eu-Py20 in assay buffer (Perkin Elmer, Boston, Mass.). Binding to the Europium labeled antibody took place for 40 minutes and HTRF signal was measured on a Fusion plate reader (Perkin Elmer, Boston, Mass.).
(§2) The catalytic activity of JAK1, JAK2 or JAK3 was assayed by measuring the phosphorylation of a biotinylated peptide. The phosphorylated peptide was detected by homogenous time resolved fluorescence (HTRF). […] Reactions were carried out at room temperature for 1 hr and then stopped with 20 μL 45 mM EDTA, 300 nM SA-APC, 6 nM Eu-Py20 in assay buffer (Perkin Elmer, Boston, Mass.). Binding to the Europium labeled antibody took place for 40 minutes and HTRF signal was measured on a Fusion plate reader (Perkin Elmer, Boston, Mass.).
On the technique in general: Time-resolved FRET reads energy transfer from a long-lived donor to a nearby acceptor.

Experiment [2] concerns the target T2, human JAK2 (a.a. 828-1132) (Homo sapiens, UniProt O60674).
T2 construct: JAK2 (a.a. 828-1132); His tag (N); made in house; host or cells: insect cells (baculovirus)
Description: In vitro JAK kinase assay (HTRF, phosphorylation of a biotinylated peptide), JAK2. Format: biochemical. The conditions noted are these: Table D1. How it is done: as §1, §2

The structures appear in SMILES notation.

T2 sequence (O60674 828-1132): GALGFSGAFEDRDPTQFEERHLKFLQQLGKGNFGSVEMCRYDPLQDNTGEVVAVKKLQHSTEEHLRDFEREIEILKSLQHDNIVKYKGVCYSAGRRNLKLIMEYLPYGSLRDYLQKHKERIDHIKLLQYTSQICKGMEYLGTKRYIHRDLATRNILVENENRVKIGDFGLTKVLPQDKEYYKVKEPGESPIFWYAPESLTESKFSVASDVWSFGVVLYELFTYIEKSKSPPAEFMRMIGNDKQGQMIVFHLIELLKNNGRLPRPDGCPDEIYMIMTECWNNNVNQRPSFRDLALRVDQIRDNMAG
T1 sequence (P23458 849-1154): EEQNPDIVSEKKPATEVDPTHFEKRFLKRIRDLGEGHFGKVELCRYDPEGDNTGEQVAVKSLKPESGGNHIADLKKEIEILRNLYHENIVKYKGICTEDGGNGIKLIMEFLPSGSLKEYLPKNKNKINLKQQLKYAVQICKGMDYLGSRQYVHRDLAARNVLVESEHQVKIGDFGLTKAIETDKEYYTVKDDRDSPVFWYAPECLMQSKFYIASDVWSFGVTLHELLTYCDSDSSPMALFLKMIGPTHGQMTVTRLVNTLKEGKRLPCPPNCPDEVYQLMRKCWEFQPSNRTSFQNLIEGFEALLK

In general, IC50 refers to the concentration that inhibits the measured activity by half. For the compound `O=C(C[C@H]1CCN(C(=O)Nc2ccccc2)C1)Nc1ccc2cc1CCc1cncc(c1)Nc1ncc(Cl)c(n1)N2` [Example D97, (3R)-3-(2-{[6-Chloro-2,4,8,18,22-pentaazatetracyclo[14.3.1.1(3,7).1(9,13)]docosa-1(20),3(22),4,6,9(21),10,12,16,18-nonaen-12-yl]amino}-2-oxoethyl)-N-phenylpyrrolidine-1-carboxamide bis(trifluoroacetate)], the IC50 came out at 3.3 nM in experiment [1] and 84 nM in experiment [2].

On to `N#Cc1ccc(NC(=O)N2CC[C@H](CC(=O)Nc3ccc4cc3CCc3cncc(c3)Nc3ncc(Cl)c(n3)N4)C2)cc1` [Example D98, (3R)-3-(2-{[6-Chloro-2,4,8,18,22-pentaazatetracyclo[14.3.1.1(3,7).1(9,13)]docosa-1(20),3(22),4,6,9(21),10,12,16,18-nonaen-12-yl]amino}-2-oxoethyl)-N-(4-cyanophenyl)pyrrolidine-1-carboxamide bis(trifluoroacetate)], for which the figures for the half-inhibitory concentration (IC50) in experiment [1] and in experiment [2] were 12 nM and 122 nM, respectively. As to `N#Cc1cccc(NC(=O)N2CC[C@H](CC(=O)Nc3ccc4cc3CCc3cncc(c3)Nc3ncc(Cl)c(n3)N4)C2)c1` [Example D99, (3R)-3-(2-{[6-Chloro-2,4,8,18,22-pentaazatetracyclo[14.3.1.1(3,7).1(9,13)]docosa-1(20),3(22),4,6,9(21),10,12,16,18-nonaen-12-yl]amino}-2-oxoethyl)-N-(3-cyanophenyl)pyrrolidine-1-carboxamide bis(trifluoroacetate)], the results for the concentration for half-maximal inhibition (IC50) in experiment [1] and in experiment [2] were 15 nM and 107 nM, respectively. Taken in the same sequence, the figures for `N#Cc1ccccc1NC(=O)N1CC[C@H](CC(=O)Nc2ccc3cc2CCc2cncc(c2)Nc2ncc(Cl)c(n2)N3)C1` [Example D100, (3R)-3-(2-{[6-Chloro-2,4,8,18,22-pentaazatetracyclo[14.3.1.1(3,7).1(9,13)]docosa-1(20),3(22),4,6,9(21),10,12,16,18-nonaen-12-yl]amino}-2-oxoethyl)-N-(2-cyanophenyl)pyrrolidine-1-carboxamide bis(trifluoroacetate)] were 20 nM and 191 nM. Taken in the same sequence, the figures for `O=C(C[C@H]1CCN(C(=O)Nc2cccnc2)C1)Nc1ccc2cc1CCc1cncc(c1)Nc1ncc(Cl)c(n1)N2` [Example D101, (3R)-3-(2-{[6-Chloro-2,4,8,18,22-pentaazatetracyclo[14.3.1.1(3,7).1(9,13)]docosa-1(20),3(22),4,6,9(21),10,12,16,18-nonaen-12-yl]amino}-2-oxoethyl)-N-pyridin-3-ylpyrrolidine-1-carboxamide tris(trifluoroacetate)] were 14 nM and 172 nM. The corresponding values for `O=C(C[C@H]1CCN(C(=O)Nc2ccc(F)cc2)C1)Nc1ccc2cc1CCc1cncc(c1)Nc1ncc(Cl)c(n1)N2` [Example D102, (3R)-3-(2-{[6-Chloro-2,4,8,18,22-pentaazatetracyclo[14.3.1.1(3,7).1(9,13)]docosa-1(20),3(22),4,6,9(21),10,12,16,18-nonaen-12-yl]amino}-2-oxoethyl)-N-(4-fluorophenyl)pyrrolidine-1-carboxamide bis(trifluoroacetate)] are 2.5 nM and 78 nM. Turning to `O=C(C[C@H]1CCN(C(=O)Nc2cccc(F)c2)C1)Nc1ccc2cc1CCc1cncc(c1)Nc1ncc(Cl)c(n1)N2` [Example D103, (3R)-3-(2-{[6-Chloro-2,4,8,18,22-pentaazatetracyclo[14.3.1.1(3,7).1(9,13)]docosa-1(20),3(22),4,6,9(21),10,12,16,18-nonaen-12-yl]amino}-2-oxoethyl)-N-(3-fluorophenyl)pyrrolidine-1-carboxamide bis(trifluoroacetate)], the IC50 in experiment [1] came to 6.7 nM; in experiment [2] it was 113 nM.

Turning to `O=C(C[C@H]1CCN(C(=O)Nc2ccccc2F)C1)Nc1ccc2cc1CCc1cncc(c1)Nc1ncc(Cl)c(n1)N2` [Example D104, (3R)-3-(2-{[6-Chloro-2,4,8,18,22-pentaazatetracyclo[14.3.1.1(3,7).1(9,13)]docosa-1(20),3(22),4,6,9(21),10,12,16,18-nonaen-12-yl]amino}-2-oxoethyl)-N-(2-fluorophenyl)pyrrolidine-1-carboxamide bis(trifluoroacetate)], the IC50 stood at 8.5 nM in experiment [1] and 255 nM in experiment [2]. As for `Cc1oncc1C(=O)N1CC[C@@H](CC(=O)Nc2ccc3cc2CCc2cncc(c2)Nc2ncc(Cl)c(n2)N3)C1` [Example D123, N-[6-Chloro-2,4,8,18,22-pentaazatetracyclo[14.3.1.1(3,7).1(9,13)]docosa-1(20),3(22),4,6,9(21),10,12,16,18-nonaen-12-yl]-2-{(3S)-1-[(5-methylisoxazol-4-yl)carbonyl]pyrrolidin-3-yl}acetamide bis(trifluoroacetate)], the IC50 in experiment [1] was found to be 50 nM. Consider `Cc1cc(C(=O)N2CC[C@@H](CC(=O)Nc3ccc4cc3CCc3cncc(c3)Nc3ncc(Cl)c(n3)N4)C2)no1` [Example D124, N-[6-Chloro-2,4,8,18,22-pentaazatetracyclo[14.3.1.1(3,7).1(9,13)]docosa-1(20),3(22),4,6,9(21),10,12,16,18-nonaen-12-yl]-2-{(3S)-1-[(5-methylisoxazol-3-yl)carbonyl]pyrrolidin-3-yl}acetamide bis(trifluoroacetate)], for which the IC50 in experiment [1] is 16 nM. Turning to `O=C(C[C@@H]1CCN(C(=O)c2nccs2)C1)Nc1ccc2cc1CCc1cncc(c1)Nc1ncc(Cl)c(n1)N2` [Example D125, N-[6-Chloro-2,4,8,18,22-pentaazatetracyclo[14.3.1.1(3,7).1(9,13)]docosa-1(20),3(22),4,6,9(21),10,12,16,18-nonaen-12-yl]-2-[(3S)-1-(1,3-thiazol-2-ylcarbonyl)pyrrolidin-3-yl]acetamide bis(trifluoroacetate)], in experiment [1], the IC50 came out at 34 nM. On the same count and under the same terms, next, `Cn1cncc1C(=O)N1CC[C@@H](CC(=O)Nc2ccc3cc2CCc2cncc(c2)Nc2ncc(Cl)c(n2)N3)C1` [Example D126, N-[6-Chloro-2,4,8,18,22-pentaazatetracyclo[14.3.1.1(3,7).1(9,13)]docosa-1(20),3(22),4,6,9(21),10,12,16,18-nonaen-12-yl]-2-{(3S)-1-[(1-methyl-1H-imidazol-5-yl)carbonyl]pyrrolidin-3-yl}acetamide tris(trifluoroacetate)]: 98 nM; `O=C(C[C@H]1CCN(C(=O)c2cc[nH]n2)C1)Nc1ccc2cc1CCc1cncc(c1)Nc1ncc(Cl)c(n1)N2` [Example D130, N-[6-Chloro-2,4,8,18,22-pentaazatetracyclo[14.3.1.1(3,7).1(9,13)]docosa-1(20),3(22),4,6,9(21),10,12,16,18-nonaen-12-yl]-2-[(3R)-1-(1H-pyrazol-3-ylcarbonyl)pyrrolidin-3-yl]acetamide bis(trifluoroacetate)]: 23 nM; `O=C(C[C@@H]1CCCN(c2nc3cccnc3o2)C1)Nc1ccc2cc1CCc1cncc(c1)Nc1ncc(Cl)c(n1)N2` [Example D213, N-[6-Chloro-2,4,8,18,22-pentaazatetracyclo[14.3.1.1(3,7).1(9,13)]docosa-1(20),3(22),4,6,9(21),10,12,16,18-nonaen-12-yl]-2-[(3S)-1-[1,3]oxazolo[5,4-b]pyridin-2-ylpiperidin-3-yl]acetamide tris(trifluoroacetate)]: 11 nM.

These data come from patent US8871753B2, “Macrocyclic compounds and their use as kinase inhibitors” (Incyte Corporation, priority 2008, dated 2014).
